Measured values published in PMC10407255, “Comparison of activity, structure, and dynamics of SF-1 and LRH-1 complexed with small molecule modulators” (The Journal of Biological Chemistry, 2023).
Where two headings read alike, the source gives them in different places.

Legend:
LRH-1 = target: T1, LRH-1 (Homo sapiens, UniProt O00482); experiment: Luciferase reporter assay, LRH-1, HeLa cells; assay type: cell-based; conditions: for specificity for LRH-1 over SF-1 in reporter assays: 0.1, 1, and 10 μM, LRH-1 vs SF-1 reporter; for LRH-1 activation in luciferase reporter assay: small molecule at 0.1, 1, and 10 μM, relative to DMSO control
T1 construct: expressed in transfected cells; host or cells: HeLa
T1 sequence (O00482 whole entry): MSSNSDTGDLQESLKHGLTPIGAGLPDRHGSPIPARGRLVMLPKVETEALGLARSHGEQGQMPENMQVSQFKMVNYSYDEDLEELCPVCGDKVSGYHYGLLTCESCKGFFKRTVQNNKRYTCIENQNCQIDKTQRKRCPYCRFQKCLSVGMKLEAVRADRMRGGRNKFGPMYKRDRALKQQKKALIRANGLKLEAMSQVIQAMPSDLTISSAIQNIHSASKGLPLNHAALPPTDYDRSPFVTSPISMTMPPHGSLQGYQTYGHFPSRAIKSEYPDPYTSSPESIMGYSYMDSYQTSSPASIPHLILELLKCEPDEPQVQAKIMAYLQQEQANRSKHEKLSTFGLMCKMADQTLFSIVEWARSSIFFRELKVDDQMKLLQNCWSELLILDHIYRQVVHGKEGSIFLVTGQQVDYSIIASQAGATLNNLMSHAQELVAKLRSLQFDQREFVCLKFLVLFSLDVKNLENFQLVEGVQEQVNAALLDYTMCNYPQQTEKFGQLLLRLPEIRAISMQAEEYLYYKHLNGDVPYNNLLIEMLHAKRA
Method: (§1) Reporter assays were conducted as described previously ([47], [52], [53]). Briefly, HeLa cells were seeded at ∼7500 to 10,000 cells per well in 96-well plates (white-walled, clear bottom) in MEMα + 10% FBS – charcoal/dextran treated. Once cells reached 80 to 90% confluence, they were transfected with LRH-1 (in pCI vector, 5 ng/well) or SF-1 (in pcDNA vector, 5 ng/well), a reporter plasmid with an NR5A response element derived from the SHP promoter cloned upstream of Firefly Luciferase (in pGL3-Basic vector, 50 ng/well), and a plasmid expressing Renilla Luciferase constitutively from a CMV promoter (1 ng/well). Cells were transfected with FuGENE at a ratio of 3:1 (FuGENE:DNA). Twenty-four hours after transfection, compounds were diluted in Opti-MEM and introduced to cells at the final concentrations indicated in figures (final DMSO concentration was 0.37%). Luciferase signal was measured after ∼24 h using the DualGlo kit (Promega) with a BioTek Neo plate reader. Each experiment was conducted with three biological replicates, each with three technical replicates averaged prior to data analysis. Firefly Luciferase signal for each well was divided by the well’s Renilla Luciferase signal intensity and then normalized relative to the DMSO control. Data were analyzed with GraphPad Prism (version 9) using a stimulating dose–response curve (Hill slope = 1).

L265M SF-1 mutant = target: T2, L265M SF-1 mutant (Homo sapiens, UniProt Q13285, L265M); experiment: Luciferase reporter assay, L265M SF-1 mutant; assay type: cell-based; conditions: 0.1, 1, and 10 µM, relative to DMSO control
T2 construct: expressed in transfected cells; host or cells: HeLa
T2 sequence (Q13285 whole entry L265M): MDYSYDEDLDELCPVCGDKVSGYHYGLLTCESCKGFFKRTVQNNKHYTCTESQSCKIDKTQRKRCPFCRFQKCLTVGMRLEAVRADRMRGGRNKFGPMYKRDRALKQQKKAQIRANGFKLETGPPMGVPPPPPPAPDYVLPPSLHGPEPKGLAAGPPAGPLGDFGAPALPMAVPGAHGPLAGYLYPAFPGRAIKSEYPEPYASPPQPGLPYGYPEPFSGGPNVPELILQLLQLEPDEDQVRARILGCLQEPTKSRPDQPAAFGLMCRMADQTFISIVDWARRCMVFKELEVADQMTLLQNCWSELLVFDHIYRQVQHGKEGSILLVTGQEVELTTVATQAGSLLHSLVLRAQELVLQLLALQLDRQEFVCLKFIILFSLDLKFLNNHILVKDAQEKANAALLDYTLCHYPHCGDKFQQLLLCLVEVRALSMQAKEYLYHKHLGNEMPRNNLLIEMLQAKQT
Method: as §1, with “1). […]” for “1).”

SF-1 LBD [1] = target: T3, SF-1 LBD (Homo sapiens, UniProt Q13285); experiment: Differential scanning fluorimetry (thermal shift assay); assay type: binding; conditions: for Tm (melting temperature): SF-1 LBD pre-exchanged with DLPC, incubated with small molecule overnight; for positive shift in melting temperature: relative to the DLPC phospholipid control
T3 construct: transformed with the SF-1 LBD (amino acids 218–461) in the pLIC-His vector; made in house; host or cells: E. coli BL21(DE3)-pLysS
T3 sequence (Q13285 218-461): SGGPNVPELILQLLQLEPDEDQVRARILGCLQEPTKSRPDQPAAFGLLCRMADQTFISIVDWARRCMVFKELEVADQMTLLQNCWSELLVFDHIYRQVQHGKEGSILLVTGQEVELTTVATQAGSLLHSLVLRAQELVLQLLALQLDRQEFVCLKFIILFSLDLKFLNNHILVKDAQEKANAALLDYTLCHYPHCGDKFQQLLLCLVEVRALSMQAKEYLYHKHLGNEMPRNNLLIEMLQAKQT
Method: Purified SF-1 LBD, pre-exchanged with DLPC (0.2 mg/ml), was combined with small molecules overnight at 4 °C in assay buffer. SYPRO orange dye was added to the complexes the next day, at a final dilution of 1:1000. Complexes were heated at a rate of 0.5 °C/minute on a StepOne Plus thermocycler, using the ROX filter for fluorescence detection. The melting temperature (Tm, 50% unfolding) was calculated using the Bolzman equation GraphPad Prism (version 9). Assays were conducted with nine technical replicates over three experiments.

SF-1 LBD [2] = target: T3, SF-1 LBD; experiment: FP assay (6N-FAM forward binding and competition), wild-type SF-1; conditions: for Ki: FP competition with 10 nM 6N-FAM, 25 nM SF-1 LBD, 95% confidence intervals in brackets, read-out: Ki (inhibition constant)
Method: (§2) FP assays were performed as described previously ([38], [47], [53]). Briefly, experiments were conducted in black, polystyrene, non-binding surface 384-well plates (Corning Inc., Corning, NY) with 30 μl volumes in assay buffer (150 mM NaCl, 20 mM Tris-HCl, 5% glycerol, pH 7.4). […] Polarization was monitored on a Neo plate reader (Biotek, Winooski, VT) at an excitation/emission wavelength of 485/528 nm. Plates were incubated overnight at 4 °C and centrifuged at 2000g for 2 min before polarization measurement. Nine technical replicates were conducted over three experiments and compiled binding data were baseline-corrected to wells with no protein and fit with a one-site binding curve in GraphPad Prism version 7 (GraphPad, Inc, La Jolla, CA). 6N conjugated to fluorescein amidite (FAM) (10 nM/well – 0.8 times the affinity of SF-1 for 6N-FAM) was incubated with SF-1 LBD (25 nM/well – 60% of the forward binding Bmax). Unlabeled compounds were added at concentrations indicated in figures with DMSO in each well held constant at 6.7% v/v. Each experiment was performed two or three times with four technical replicates each. Technical replicates were averaged and normalized independently prior to final data analysis.

SF-1 = target: T4, SF-1 (Homo sapiens, UniProt Q13285); experiment: Luciferase reporter assay, SF-1, HeLa cells; assay type: cell-based; conditions: for EC50: HeLa cells, ~24 h; for luciferase signal at highest concentration: cells treated with 3e-5 M, potentially indicating cell toxicity or compound insolubility, data excluded; for maximum activation: normalized relative to DMSO control; for SF-1 activation in luciferase reporter assay: small molecule at 0.1, 1, and 10 μM, relative to DMSO control
T4 construct: expressed in transfected cells; host or cells: HeLa
T4 sequence (Q13285 whole entry): as the sequence (Q13285 whole entry L265M) above, with M265L counted along it
Method: as §1

SF-1 LBD M268L = target: T5, SF-1 LBD M268L (Homo sapiens, UniProt Q13285, M268L); experiment: FP assay (forward binding and competition), SF-1 M268L; conditions: for effect of deep pocket mutation on binding affinity: M268 mutant compared to WT, FP competition
T5 construct: transformed with the SF-1 LBD (amino acids 218–461) in the pLIC-His vector; His (pLIC-His vector); made in house
T5 sequence (Q13285 218-461 M268L): as the sequence (Q13285 218-461) above, with M51L counted along it
Method: as §2
(§3) All mutations other than L265M were introduced using the QuikChange II Site-Directed Mutagenesis Kit (Agilent). The Q5 Site-Directed Mutagenesis Kit (New England Biolabs) was used to generate the L265M mutant. All constructs were sequenced prior to use.

SF-1 LBD T272V = target: T6, SF-1 LBD T272V (Homo sapiens, UniProt Q13285, T272V); experiment: FP assay (forward binding and competition), SF-1 T272V; conditions: for effect of deep pocket mutation on binding affinity: T272 mutant compared to WT, FP competition
T6 construct: transformed with the SF-1 LBD (amino acids 218–461) in the pLIC-His vector; His (pLIC-His vector); made in house
T6 sequence (Q13285 218-461 T272V): as the sequence (Q13285 218-461) above, with T55V counted along it
Method: as §2, §3

SF-1 LBD Y436F = target: T7, SF-1 LBD Y436F (Homo sapiens, UniProt Q13285, Y436F); experiment: FP assay (forward binding and competition), SF-1 Y436F; conditions: for effect of pocket mouth mutation Y436 on binding affinity: compared to WT, FP competition
T7 construct: transformed with the SF-1 LBD (amino acids 218–461) in the pLIC-His vector; His (pLIC-His vector); made in house
T7 sequence (Q13285 218-461 Y436F): as the sequence (Q13285 218-461) above, with Y219F counted along it
Method: as §2, §3

SF-1 LBD K440A = target: T8, SF-1 LBD K440A (Homo sapiens, UniProt Q13285, K440A); experiment: FP assay (forward binding and competition), SF-1 K440A
T8 construct: transformed with the SF-1 LBD (amino acids 218–461) in the pLIC-His vector; His (pLIC-His vector); made in house
T8 sequence (Q13285 218-461 K440A): as the sequence (Q13285 218-461) above, with K223A counted along it
Method: as §2
All mutations other than L265M were introduced using the QuikChange II Site-Directed Mutagenesis Kit (Agilent). […]

[3] = target: T9, CysLite SF-1 (steroidogenic factor-1 ligand binding domain, amino acids 218-461, C247S, C412S) (human, UniProt Q13285 218-461, C247S | C412S); experiment: crystal structure; cleaved SF-1 CysLite (~5 mg/ml) incubated with 4-fold molar excess of TIF2 peptide at room temperature for 2 h; hanging drop vapor diffusion at 4 °C, Na acetate pH 4.6, glycerol, PEG 4000; crystals soaked 2 days with 6N-10CA; 2.59 Å; conditions: both partners purified
T9 construct: Steroidogenic factor-1 (SF-1); Expressed from the pLic-His vector; His tag cleaved with tobacco etch virus protease; In the crystal the pocket holds 6N-10CA (soaked in) and a bacterial phospholipid modelled as DPPE; also called SF-1 LBD; SF-1 CysLite; source: E. coli BL21(DE3)-pLysS, purified (HisTrap, TEV cleavage, second HisTrap, SEC)
T9 sequence (Q13285 218-461 C247S/C412S): as the sequence (Q13285 218-461) above, with C30S, C195S counted along it

[4] = 95% confidence intervals in brackets, read-out: EC50 (half maximal effective concentration)

C=C(c1ccccc1)[C@@]12CC[C@H](NC(C)=O)C1CC(CCCCCCCCCC(=O)O)=C2c1ccccc1 (mixture of isomers) [2N-10CA]
specificity for LRH-1 over SF-1 in reporter assays (LRH-1): specificity for LRH-1 was largely preserved
LRH-1 activation in luciferase reporter assay (LRH-1): improved agonism
activation of L265M SF-1 mutant (L265M SF-1 mutant): failed to activate

C=C(c1ccccc1)[C@@]12CC[C@H](NC(N)=O)C1CC(CCCCCCCCCC(=O)O)=C2c1ccccc1 (mixture of isomers) [4N-10CA]
specificity for LRH-1 over SF-1 in reporter assays (LRH-1): specificity for LRH-1 was largely preserved
LRH-1 activation in luciferase reporter assay (LRH-1): improved agonism

C=C(c1ccccc1)[C@@]12CC[C@H](NS(N)(=O)=O)[C@@H]1CC(CCCCCCCCCC(=O)O)=C2c1ccccc1 (racemic) [6N-10CA]
Tm (melting temperature) (SF-1 LBD [1]): 58.3 °C
positive shift in melting temperature (SF-1 LBD [1]): ~6.5 °C
Ki (SF-1 LBD [2]): 60 nM
affinity for SF-1 compared with LRH-1 (SF-1 LBD [2]; SF-1 Ki (Fig. 3C) vs LRH-1 value of ref 47): over two orders of magnitude lower
improvement in affinity of 6N-10CA over 10CA (SF-1 LBD [2]; SF-1 binding, FP competition): ~4 fold
increase in affinity of 6N-10CA over 6N (SF-1 LBD [2]; SF-1 binding, FP competition): ~20 fold
EC50 (SF-1; read-out: EC50): 100 nM
potency of 6N-10CA relative to 10CA (more potent) (SF-1; SF-1 luciferase reporter): 16 fold
potency for SF-1 compared with LRH-1 (SF-1; SF-1 vs LRH-1 value of ref 47): nearly two times less
luciferase signal at highest concentration (SF-1): drastic decrease in overall signal
maximum activation (SF-1): ~1.7
effect of deep pocket mutation on binding affinity (SF-1 LBD M268L): decreased SF-1 binding affinity
effect of deep pocket mutation on binding affinity (SF-1 LBD T272V): decreased SF-1 binding affinity
effect of pocket mouth mutation Y436 on binding affinity (SF-1 LBD Y436F): minimal impact
effect of K440A mutation on binding affinity (SF-1 LBD K440A; compared to WT, FP competition): increased affinity for 6N-10CA was statistically insignificant

C=C(c1ccccc1)[C@@]12CC[C@H](NS(N)(=O)=O)[C@@H]1CC(CCCCCCCCCC(=O)Nc1ccc3c(c1)C(=O)OC31c3ccc(O)cc3Oc3cc(O)ccc31)=C2c1ccccc1 (racemic) [6N-FAM, reference compound]
Kd (SF-1 LBD [2]; WT SF-1 LBD, 10 nM 6N-FAM, read-out: probe affinity determined with forward binding assays): 12 nM
Kd (SF-1 LBD M268L; M268L, 10 nM 6N-FAM, read-out: probe affinity determined with forward binding assays): 19.3 nM
Kd (SF-1 LBD T272V; T272V, 10 nM 6N-FAM, read-out: probe affinity determined with forward binding assays): 10.9 nM
Kd (SF-1 LBD Y436F; Y436F, 10 nM 6N-FAM, read-out: probe affinity determined with forward binding assays): 9.9 nM
Kd (SF-1 LBD K440A; K440A, 10 nM 6N-FAM, read-out: probe affinity determined with forward binding assays): 5.5 nM

C=C(c1ccccc1)[C@@]12CC[C@H](NS(N)(=O)=O)[C@@H]1CC(CCCCCC)=C2c1ccccc1 (racemic) [6N]
Tm (melting temperature) (SF-1 LBD [1]): 58.6 °C
positive shift in melting temperature (SF-1 LBD [1]): ~6.5 °C
Ki (SF-1 LBD [2]): 1400 nM
EC50 (SF-1; [4]): 130 nM
luciferase signal at highest concentration (SF-1): drastic decrease in overall signal
maximum activation (SF-1): ~1.4
effect of pocket mouth mutation Y436 on binding affinity (SF-1 LBD Y436F): minimal impact

C=C(c1ccccc1)[C@@]12CC[C@@H](O)[C@@H]1CC(CCCCCCCCCC(=O)O)=C2c1ccccc1 (racemic) [10CA]
Tm (melting temperature) (SF-1 LBD [1]): 54.5 °C
positive shift in melting temperature (SF-1 LBD [1]): ~2 °C
Ki (SF-1 LBD [2]): 250 nM
EC50 (SF-1; [4]): 1600 nM
effect of deep pocket mutation on binding affinity (SF-1 LBD M268L): decreased SF-1 binding affinity
effect of deep pocket mutation on binding affinity (SF-1 LBD T272V): decreased SF-1 binding affinity
effect of pocket mouth mutation Y436 on binding affinity (SF-1 LBD Y436F): decreased 10CA binding affinity

C=C(c1ccccc1)C12CCC(NC(C)=O)C1CC(CCCCCC)=C2c1ccccc1 (stereo not shown) [2N]
SF-1 activation in luciferase reporter assay (SF-1): without activating SF-1
LRH-1 activation in luciferase reporter assay (LRH-1): activated LRH-1

C=C(c1ccccc1)C12CCC(OC(N)=O)C1CC(CCCCCC)=C2c1ccccc1 (stereo not shown) [3N]
SF-1 activation in luciferase reporter assay (SF-1): reduced SF-1 activity

C=C(c1ccccc1)C12CCC(NC(N)=O)C1CC(CCCCCC)=C2c1ccccc1 (stereo not shown) [4N]
SF-1 activation in luciferase reporter assay (SF-1): without activating SF-1
LRH-1 activation in luciferase reporter assay (LRH-1): activated LRH-1

CCCCCCCCCCCC(=O)OC[C@H](COP(=O)([O-])OCC[N+](C)(C)C)OC(=O)CCCCCCCCCCC [DLPC, 1,2-dilauroyl-sn-glycero-3-phosphocholine, reference compound]
Tm (melting temperature) (SF-1 LBD [1]): 52.2 °C

KENALLRYLLDKDD [TIF2 peptide (fragment of the coactivator transcriptional intermediate factor 2)]
binding result [3]: binds
